Measurements from patent publication US4031218A, “7-(2,3-Dihydroxypropyl-1,3-di-n-propylxanthine and a pharmaceutical composition containing same useful as a bronchial muscle relaxant” (Mallinckrodt, Inc., priority 1976, dated 1977).
Entries after “also recorded” stand apart in the source; their conditions may differ.

Assays:
[1] = system: dogs; test: Oral minimum emetic dose in dogs; type: in vivo, dog; details: for Emetic effect, P.O. Dogs: estimated at HBD; for Oral Emetic (Dogs), relative molar activity: relative to theophylline, molar basis
Procedure: 2. Oral Minimum Emetic Dose
The minimum dose of each compound which causes emesis after oral administration was estimated in a group of five adult mongrel dogs of either sex. Logarithmically increasing or decreasing (depending upon response) doses of each compound were administered orally via a flexible stomach tube. The compounds were dissolved in distilled water in concentrations to allow a constant volume dose of 5 ml/kg. […] Onset, frequency, and duration of emetic episodes as well as signs of CNS stimulation were also recorded.

[2] = system: guinea pig tracheal strip; test: Isolated trachea preparation (in vitro tracheal strip), pilocarpine-contracted; type: cell-based; details: relative to theophylline = 1.00, molar basis
Procedure: With the exception of theophylline, all compounds were administered as the free base dissolved or suspended in appropriate aqueous vehicles. […] The ethylenediamine portion of the molecule is pharmacologically inert, but renders solubility and convenience of use (Simons et al., S. Med. Journ. 68:802, 1975). For the purpose of comparison, aminophylline was considered to contain 80% free theophylline by weight (Piafsky and Ogilvie, New England J. Med. 292: 1218, 1975). Final comparisons were always based on the calculated dose of theophylline. Because of obvious differences in molecular weights, all compounds were compared on a molar basis rather than on absolute weight.
1. Isolated Trachea Preparation
The in vitro bronchodilator activity of each compound was estimated on the spirally cut guinea pig tracheal strip preparation as described by Constantine, (J. Pharm. Pharmacol. 17:384, 1965). Large Camm English Short Hair male guinea pigs (800-1200 gm.) were employed in order to obtain three spiral tracheal strips from one animal. Strips were suspended in 50 ml. tissue baths containing modified Krebs-Henseleit solution at 38° C. and aerated with 95% O2 /5% CO2. Pilocarpine HCl, 1 mg/liter, was added to the solution to maintain a sustained contraction and to promote rapid recovery of the muscle. A Grass FT 0.03 force displacement transducer was used to electronically record muscle response. Concentration-relaxation relationships were obtained for each compound by logarithmically increasing bath concentration until maximum (100%) relaxation was observed. Tissues were washed between doses and allowed 30 minutes to recover. Linear regression analysis of percent response vs. log of bath concentration allowed calculation of a slope and EC50 value (concentration producing 50% of maximum relaxation) for each compound. Each dose of each compound was tested a minimum of six times.

[3] = prior art statement; cited from earlier work
[4] = system: dogs; test: Acute intravenous diuretic evaluation in dogs; details: for Diuretic Activity, I.V. Dogs: estimated at HBD; for I.V. Diuretic (Dogs), relative molar activity: relative to theophylline, molar basis
Procedure: Acute Intravenous Evaluation in Dogs
Compounds were tested in two dogs each. Animals were initially hydrated with 30 ml/kg of water, orally; then anesthetized with pentobarbital sodium, 30-35 mg/kg i.v. One femoral vein was cannulated and a constant intravenous infusion of warm saline (3 ml/min.) was begun and continued throughout the experiment. The contralateral femoral vein was also cannulated for intravenous drug administration. Urine was directly collected from bilateral ureter cannulae. After a 20-minute control collection period, the first dose of the appropriate compound was injected and urine was collected at 20-minute intervals for a period of one hour. This procedure was repeated for two additional doses of the same compound. Urine volume, pH, and sodium and potassium levels were determined for each 20-minute collection period and sums were obtained for the one-hour period after each dose. Test results, reported as successive changes in each parameter, were compared accordingly.

[5] = U.S. Pat. No. 2,756,229, in comparison with theophylline; cited from earlier work
[6] = Summary of relative molar activities (means and therapeutic efficacy); details: for Therapeutic Efficacy: mean bronchodilator (therapeutic) activity divided by mean acute toxic and side effect activity; for Mean acute toxicity and side effect activity (relative molar): mean of acute toxicity and side effect lines of Table I; for Mean acute toxicity and side effect activity (relative molar) / Mean bronchodilator activity (relative molar): relative to theophylline; for Mean bronchodilator activity (relative molar): mean of bronchodilator lines of Table I
Excerpt: ^g - Mean bronchodilator (therapeutic) activity divided by mean acute

[7] = Oral LD50 / oral PD50 ratio in guinea pigs; details: guinea pig, in vivo, median lethal dose / median protective dose, relative to theophylline, read-out: Oral LD50 / Oral PD50 (G. Pig), relative
Procedure: where C is the average control preconvulsive time and T is the test preconvulsive time after compound administration, both in seconds. Animals with control preconvulsive times greater than 2 minutes were not used and if test preconvulsive time was longer than 10 minutes, 100% protection was arbitrarily assumed. The dose of each compound causing 50% protection (PD50) was calculated by the method of Litchfield and Wilcoxon (J. Pharmacol. Exp. Ther. 96:99, 1949).
The PD50 of each experimental compound was determined after both intraperitoneal and oral administration. A minimum of 3 dose levels and 6 animals per dose were employed to obtain meaningful dose-response data. Protection was assessed 15-20 minutes after intraperitoneal injection and 35-40 minutes after oral gavage with a flexible plastic tube. Animals were fasted overnight prior to oral dosing. All compounds were administered in aqueous solution in concentrations commensurate to a proper volume dose. Guinea pigs were utilized between 1 and 3 times but no animal received the same compound twice in succession with a minimum of 3 days rest between doses.
2. Oral LD50 in Guinea Pigs
The acute median lethal dose of each compound after oral administration was also determined in guinea pigs. Camm English Short Hair albino guinea pigs with sexes equally represented and ranging in weight from 255 to 311 gm. were used. A minimum of six animals per dose level were employed. Oral dosing was accomplished with a flexible tube inserted into the stomach. All guinea pigs were fasted overnight. […] The other compounds were dissolved in distilled water. Following administration of the appropriate doses, acute responses and lethalities were observed and LD50 values were calculated by the method of Litchfield and Wilcoxon (J. Pharmacol. Exp. Ther. 96:99, 1949).

[8] = system: dog hind limb; test: Dog hind limb perfusion preparation (vasodilator); type: in vivo; details: intra-arterial; relative to theophylline, molar basis
Excerpt: 1. Dog Hind Limb Perfusion Preparation
A total of 12 adult mongrel dogs of either sex were used to assess the direct intra-arterial dilating capacity of the five experimental compounds. […] This was accomplished with a Harvard Variable Speed Peristaltic Pump after proximal and distal cannualtion of the femoral artery. Changes in arterial vascular resistance were reflected as changes in perfusion pressure as measured from a T-tube on the distal side of the pump. Mean systemic arterial pressure was also recorded from the contralateral femoral artery. Drug solutions, dissolved in saline, were injected into the arterial blood supply immediately prior to entering the cannulated distal artery. Logarithmically increasing doses were given at 10-minute intervals and responses were recorded.

[9] = prior art statement; listed as dyphylline; cited from earlier work
[10] = prior art statement; cited from earlier work; remark: listed apart in the source

SMILES | MED (minimum emetic dose), P.O. Dogs [1] | Emetic effect, P.O. Dogs [1] | Oral Emetic (Dogs), relative molar activity [1] | Bronchodilator activity, In-Vitro (Tracheal Strip), relative molar activity [2] | Side effects / tolerance in words (prior art) [3] | Diuretic Activity, I.V. Dogs [4] | I.V. Diuretic (Dogs), relative molar activity [4] | Diuretic activity in words (prior art) [5] | Therapeutic Efficacy [6] | Mean acute toxicity and side effect activity (relative molar) [6] | Mean bronchodilator activity (relative molar) [6] | selectivity ratio [7] | Vasodilator, HLPP (Dogs), relative molar activity [8] | Bronchodilator activity / potency in words (prior art) [9] | Water solubility in words (prior art) [10]
CCCn1c(=O)c2c(ncn2CC(C)O)n(CCC)c1=O (stereo not drawn) [III, 7-(2-hydroxypropyl) 1,3-di-n-propylxanthine] | 0.8 mg/kg | Severe | 251.00 | 1.86 | well tolerated | Mild | 0.50 | strong diuretics | 0.09 | 36.55 | 3.46 | 5.43 | 0.76 |  | 
Cn1c(=O)c2c(ncn2CC(O)CO)n(C)c1=O (stereo not drawn) [Compound II, 7-(2,3-dihydroxypropyl) 1,3-dimethylxanthine] | > 362 mg/kg | None | < 0.50 | 0.16 | few of the usual theophylline-like side effects | Moderate | 0.26 |  | 2.31 | 0.26 | 0.60 | 2 | 0.06 | less bronchodilator potency than theophylline; also recorded: markedly decreases overall potency | high water solubility
CCCn1c(=O)c2c(ncn2CCCO)n(CCC)c1=O [IV, 7-(3-hydroxypropyl)-1,3-di-n-propylxanthine] | 33 mg/kg | None | 6.00 | 2.05 | well tolerated | Mild | 0.45 | strong diuretics | 0.72 | 2.60 | 1.87 | 3.57 | 1.06 |  | 
CCCn1c(=O)c2c(ncn2CC(O)CO)n(CCC)c1=O (stereo not drawn) [Compound V, 7-(2,3-dihydroxypropyl)-1,3-di-n-propylxanthine] | 442 mg/kg | None | 0.50 | 0.99 |  | Mild | 0.59 |  | 2.51 | 0.70 | 1.76 | 3.75 | 0.40 |  | 
